# Experimental data published in patent publication US5401875A, “2-aminocarboxylic acids and their derivatives, processes for their preparation and their use as medicaments” (Godecke Aktiengesellschaft, priority 1988, dated 1995).
# Structures can show the parent of a compound that is named as a salt.
# What was measured:
# [1] = molecular target: T1, cycloGMP-dependent kinase (Bos taurus, UniProt P00516); assay: G-kinase: inhibition of cyclic GMP-dependent kinase, phosphorus-32 incorporation into histone; assay type: biochemical, bovine; conditions: pH 7.4; 10 μM ATP; 10 μM cGMP; 2.5 nM G-kinase
# T1 construct: The enzyme was purified from bovine lung; from tissue; host or cells: bovine lung
# T1 sequence (P00516 1-671): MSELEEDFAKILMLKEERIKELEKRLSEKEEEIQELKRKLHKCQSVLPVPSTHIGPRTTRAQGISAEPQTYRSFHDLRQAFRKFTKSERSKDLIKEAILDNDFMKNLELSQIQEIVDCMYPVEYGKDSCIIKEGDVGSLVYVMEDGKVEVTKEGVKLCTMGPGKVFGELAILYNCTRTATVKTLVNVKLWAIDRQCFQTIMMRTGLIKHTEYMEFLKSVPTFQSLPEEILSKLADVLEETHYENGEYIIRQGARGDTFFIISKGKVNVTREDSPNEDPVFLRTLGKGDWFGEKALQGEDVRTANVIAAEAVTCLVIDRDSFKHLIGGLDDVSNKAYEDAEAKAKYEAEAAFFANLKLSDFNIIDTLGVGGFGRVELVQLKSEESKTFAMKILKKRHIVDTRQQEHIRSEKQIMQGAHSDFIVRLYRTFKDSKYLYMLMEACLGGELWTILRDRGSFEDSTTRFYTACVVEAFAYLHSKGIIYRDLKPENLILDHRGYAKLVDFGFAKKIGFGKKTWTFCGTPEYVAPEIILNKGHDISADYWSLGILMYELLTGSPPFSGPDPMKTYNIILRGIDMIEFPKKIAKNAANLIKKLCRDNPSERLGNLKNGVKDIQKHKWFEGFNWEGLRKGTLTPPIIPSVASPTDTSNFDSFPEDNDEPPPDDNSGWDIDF
# Procedure: The enzyme was purified from bovine lung and its activity determined via the incorporation of phosphorus 32-labelled phosphate into histone. In the test batch are contained the following components: 20 mM Tris-HCl, pH 7.4, 5 mM MgCl2, 1 mM DTT, 10 μM ATP, 10 μM cGMP, 40 μg BSA, 2% glycerol, as well as 10 μg histone II-A. The starting of the reaction takes place by addition of 2.5 nM G-kinase. Otherwise, the carrying out of the test takes place as in the case of C-kinase.
# [2] = molecular target: T2, cycloAMP-dependent kinase (Homo sapiens, UniProt P17612); assay: A-kinase: inhibition of cyclic AMP-dependent kinase (commercially available catalytic subunit), phosphorus-32 incorporation into histone; assay type: biochemical; conditions: pH 7.5; 40 μM ATP; histone-H-2B; read-out: Inhibition of cAMP-kinase, IC50-values
# T2 construct: purchased
# Procedure: The measurement of the activity takes place with the commercially available catalytic subunit of the enzyme. The incorporation of phosphorus-32 labelled phosphate into histone is thereby measured. The reaction batch of 200 μL contains the following components: 50 mM PIPES-NaOH, pH 7.5, 10 mM MgCl2, 1 mM DTT, 40 μM ATP, as well as 50 μg histone-H-2B. The carrying out of the test takes place as in the case of C-kinase.
# [3] = molecular target: T3, myosine light chain kinase (Gallus gallus, UniProt P11799); assay: MLC-kinase: inhibition of myosine light chain kinase, phosphorus-32 incorporation into MLC; assay type: biochemical, chicken; conditions: pH 7.2; 250 μM ATP; 25 μM MLC; about 1 nM MLC kinase
# T3 construct: Not only the enzyme but also the substrate (MLC) are purified from chicken stomach; from tissue; host or cells: chicken stomach
# Procedure: Not only the enzyme but also the substrate (MLC) are purified from chicken stomach. The activity measurement also takes place via the incorporation of phosphorus-32 labelled phosphate. The reaction batch of 200 μL contains the following components: 50 mM MOPS-NaOH, pH 7.2, 5 mM MgCl2, 100 μM CaCl2, 100 nM calmodulin, 1 mM DTT, 250 μM ATP, as well as 25 μM MLC. The reaction is started by addition of about 1 nM MLC kinase; otherwise, the carrying out of the test takes place as in the case of C-kinase.
# [4] = molecular target: protein kinase C; assay: C-kinase: inhibition of protein kinase C, incorporation of phosphorus-32 labelled phosphate in histone; assay type: biochemical, rat brain or chicken stomach smooth muscle; conditions: pH 7.5; 10 μM ATP; 5 nM PKC; 5 min at 30° C.
# Procedure: The enzyme is purified from rat brain or smooth muscle (chicken stomach). Its activity is determined via the incorporation of phosphorus-32 labelled phosphate in histone. The reaction batch of 200 μL contains the following components: 50 mM HEPES-NaOH, pH 7.5, 5 mM MgCl2, 1 mM DTT, 4 μM free Ca^2+, 10 μM ATP, 1 μg phosphatidylserine, 0.2 μg 1,2-diolein, as well as 40 μg histone H-1. The batch is preincubated for 4 minutes at 30° C. and the reaction then started by addition of 5 nM PKC. After 5 minutes incubation at 30° C. the reaction is stopped with 10% TCA and the samples then filtered off. The phosphate incorporation is determined by means of Cerenkov counting in a scintillation counter.
# T3 sequence (P11799 935-1906 limits assumed): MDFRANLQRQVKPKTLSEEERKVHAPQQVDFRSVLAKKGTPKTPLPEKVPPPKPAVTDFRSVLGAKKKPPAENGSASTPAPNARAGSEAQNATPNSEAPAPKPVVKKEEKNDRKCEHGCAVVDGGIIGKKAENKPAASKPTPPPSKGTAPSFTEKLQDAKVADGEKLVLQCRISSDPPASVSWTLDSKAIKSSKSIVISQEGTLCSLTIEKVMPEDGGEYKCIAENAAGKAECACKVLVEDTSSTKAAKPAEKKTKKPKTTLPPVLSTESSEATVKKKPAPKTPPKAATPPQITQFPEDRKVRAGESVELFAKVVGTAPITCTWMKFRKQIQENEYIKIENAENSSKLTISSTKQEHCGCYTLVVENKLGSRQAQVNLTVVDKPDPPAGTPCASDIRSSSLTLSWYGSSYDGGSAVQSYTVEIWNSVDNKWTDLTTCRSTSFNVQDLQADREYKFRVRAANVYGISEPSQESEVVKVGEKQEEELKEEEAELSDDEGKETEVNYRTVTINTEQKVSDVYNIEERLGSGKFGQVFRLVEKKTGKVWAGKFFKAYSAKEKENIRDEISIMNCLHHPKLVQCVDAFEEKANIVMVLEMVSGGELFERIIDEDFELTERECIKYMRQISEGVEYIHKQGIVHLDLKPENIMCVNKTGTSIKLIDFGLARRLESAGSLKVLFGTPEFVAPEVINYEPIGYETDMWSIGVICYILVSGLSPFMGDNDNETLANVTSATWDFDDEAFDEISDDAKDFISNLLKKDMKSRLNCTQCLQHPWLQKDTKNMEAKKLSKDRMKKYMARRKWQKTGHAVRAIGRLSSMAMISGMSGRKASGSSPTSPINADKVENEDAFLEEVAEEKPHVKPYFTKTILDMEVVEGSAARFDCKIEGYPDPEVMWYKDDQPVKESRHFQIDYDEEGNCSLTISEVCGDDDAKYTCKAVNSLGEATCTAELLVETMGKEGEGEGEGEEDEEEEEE
IC50 [1] [µM],IC50 [2] [µM],IC50 [3] [µM],IC50 [4] [µM],SMILES
> 100,> 100,> 100,5,"CCCCCCCCCCCCCCCCCCOCC(CN(C)C)OC(C)=O (racemic) [A, (±)1-dimethylamino-3-octadecyloxy-2-propyl acetate hydrochloride]"
> 100,> 100,> 100,2.5,"CCCCCCCCCCCCCCCCCCOCC(O)CN(C)C(CO)C(=O)O (stereo not drawn) [Example 1, 2-[N-Methyl-N-(3-octadecyloxy-2-hydroxypropyl)]-amino-3-hydroxypropionic acid hydrochloride]"

SMILES,IC50 [1] [µM],IC50 [2] [µM],IC50 [3] [µM],IC50 [4] [µM]
CCCCCCCCCCOCC(CN1CCC(CN)(c2ccccc2)CC1)OCCCCCCCCCC (stereo not drawn) [B],28,29,5.1,7
